From patent US9150505B2, “Prophylactic or therapeutic agent for diabetes or obesity” (AJINOMOTO CO., INC., priority 2010, dated 2015)

System: NCI-H716 cells
Test: Promotion of GLP-1 secretion in NCI-H716 cells
Type: cell-based, human
Conditions: 10 mM, 30 minutes at 37° C., buffer assumed to be 1.0
Procedure: Human appendix-derived cell line NCI-H716 (ATCC No CCL-251) was cultured in a 10% FBS-containing DMEM/HamF-12 medium at 37° C. in the presence of 5% CO2. NCI-H716 cells were seeded in a poly-D-lysine-coated 96-well plate at 100,000 cells/well and cultured for two days. Prior to sample addition, wells were washed with Hepes buffer (20 mM Hepes, 146 mM NaCl, 5 mM KCl, 1.5 mM CaCl2, 1 mM MgSO4, 5.5 mM D-glucose, 0.2% BSA, pH 7.4). Fifty μl of a sample solution dissolved in the same buffer was added and incubated at 37° C. for 30 minutes. The above-described compounds in Example 6 (Compound 1) (10 mM), Example 48 (Compound 2) (5 mM) and Example 14 (Compound 3) (2 mM) were used as the samples. In addition, a Hepes buffer was used as a control. After collecting the supernatant, the cells were precipitated by centrifugation (5,000×g, 1 min.) to collect the supernatant thereof. GLP-1 level in the supernatant was determined as described below according to a quantitative method for GLP-1 that uses GLP-1 receptor gene expression cells.
According to a routine method (Lopez de Maturana R, Willshaw A, Kuntzsch A, Rudolph R, Donnelly D. J Biol Chem. 2003 Mar. 21; 278 (12):10195-200), human GLP-1 receptor gene (Nucleotide sequence 1) was integrated into pcDNA3.1 to prepare human GLP-1 receptor gene expression plasmid hGLP-1R/pcDNA3.1. Moreover, chimeric gene (Nucleotide sequence 2) of human Gα15 gene and human gustducin gene was integrated into pcDNA3.1 to prepare G protein expression plasmid Gα15-gust/pcDNA3.1. […] After 24 hours of cultivation in a CO2 incubator, changes in the fluorescence intensity were determined starting immediately after sample addition according to the Ca^2+ fluorescence indicator FLIPR Calcium 4 Assay Kit protocol (Molecular Devices) using FlexStation (Molecular Devices). Concentration dependency of human GLP-1 (7-36 Amide; Peptide Institute) with respect to the changes in the fluorescence intensity was determined and used as a standard curve for quantitating the sample. […]

## N[C@@H](CNC(=O)Nc1cc(Cl)cc(S(=O)(=O)O)c1O)C(=O)O [Example 6, (2S)-2-amino-3-{[(5-chloro-2-hydroxy-3-sulfophenyl)carbamoyl]amino}propanoic acid]
  Relative secretion volumes (GLP-1): 2.16
